Experiments:
[1] = molecular target: T1, human TLR8 (Homo sapiens, UniProt Q9NR97); experiment: In vitro human TLR8 binding reporter assay (HEK-Blue, NF-kB/AP1-inducible SEAP); assay type: cell-based; settings: HEK-Blue human TLR8 SEAP reporter cells; activity range classes; read-out: TLR8 Agonist EC50
T1 construct: host or cells: human HEK-Blue cells (HEK293-derived) co-expressing TLR8 and an NF-kB/AP1-inducible SEAP reporter
T1 sequence (Q9NR97 27-1041): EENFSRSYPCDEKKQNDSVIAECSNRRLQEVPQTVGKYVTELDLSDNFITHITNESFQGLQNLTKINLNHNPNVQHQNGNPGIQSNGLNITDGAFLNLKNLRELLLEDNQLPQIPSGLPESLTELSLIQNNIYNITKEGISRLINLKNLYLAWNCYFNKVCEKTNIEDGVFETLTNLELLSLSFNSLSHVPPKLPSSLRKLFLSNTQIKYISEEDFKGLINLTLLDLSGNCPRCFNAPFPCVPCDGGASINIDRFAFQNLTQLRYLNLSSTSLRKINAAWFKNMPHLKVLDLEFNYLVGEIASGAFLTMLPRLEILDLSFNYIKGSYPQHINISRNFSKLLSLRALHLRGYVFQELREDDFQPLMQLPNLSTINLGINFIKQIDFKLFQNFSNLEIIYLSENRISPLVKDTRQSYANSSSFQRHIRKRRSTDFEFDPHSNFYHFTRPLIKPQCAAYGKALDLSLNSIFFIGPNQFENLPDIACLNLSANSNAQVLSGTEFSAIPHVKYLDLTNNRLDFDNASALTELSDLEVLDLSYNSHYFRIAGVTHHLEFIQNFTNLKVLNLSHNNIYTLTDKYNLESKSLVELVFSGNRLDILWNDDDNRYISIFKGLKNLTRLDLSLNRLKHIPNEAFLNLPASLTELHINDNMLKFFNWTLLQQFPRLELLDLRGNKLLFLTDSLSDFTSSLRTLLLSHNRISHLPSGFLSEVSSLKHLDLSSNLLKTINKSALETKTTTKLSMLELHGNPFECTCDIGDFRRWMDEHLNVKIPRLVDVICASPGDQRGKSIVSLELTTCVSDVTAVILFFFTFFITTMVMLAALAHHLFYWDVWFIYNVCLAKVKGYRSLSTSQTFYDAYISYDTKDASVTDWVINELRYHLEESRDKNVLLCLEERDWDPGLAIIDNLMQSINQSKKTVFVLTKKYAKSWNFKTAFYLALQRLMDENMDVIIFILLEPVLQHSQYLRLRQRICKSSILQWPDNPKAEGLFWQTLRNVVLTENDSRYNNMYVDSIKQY
Description: (§1) In Vitro Human TLR7 and TLR8 Binding Reporter Assays
(§2) Logarithmically-growing human HEK-Blue cells co-expressing a TLR7 or TLR8 gene and a NF-kB/AP1-inducible SEAP (secreted embryonic alkaline phosphatase; Invivogen, San Diego, CA) reporter gene are added to individual wells of a 384-well plate (15,000 cells per 20 μL per well) and maintained for 24 h at 37° C., 5% CO2. Test compounds or DMSO are distributed to separate wells the next day using acoustic liquid handling technology (100 nL per well) and cells are subsequently incubated for 18 h at 37° C., 5% CO2. Cellular SEAP production is measured using an Envision plate reader instrument thirty minutes after adding freshly-made Quanti-Blue reagent (prepared by following manufacturer instructions; Invivogen, San Diego, CA) to the HEK-Blue TLR Nf-kB-SEAP cell reactions. All EC50 values (half-maximal effective concentration) are determined using proprietary data analysis software. Normalized EC50 value=absolute value determined by setting 100% Ymax using a reference standard RLU (relative light unit) values from cells treated with 50 μM of the reference standard.

[2] = tested on: IL-1β production in PMA-differentiated THP-1 cells; experiment: Measurement of IL-1β production in PMA-differentiated THP-1 cells (ELISA, 4 hours); assay type: cell-based, human; settings: Homo sapiens, THP-1, human IL-1β production, assayed using one or more of the described procedures, read-out: NLRP3 hIL1B IC50
Description: Measurement of IL-1β Production in PMA-Differentiated THP-1 Cells THP-1 cells were purchased from the American Type Culture Collection and sub-cultured according to instructions from the supplier. Prior to experiments, cells were cultured in RPMI 1640 containing 10% heat inactivated FBS, penicillin (100 units/ml) and streptomycin (100 μg/ml), and maintained in log phase prior to experimental setup. Prior to the experiment THP-1 were treated with PMA (Phorbol 12-myristate 13-acetate) (10 μg/ml) for 24 hours. The day of the experiment the media was removed and attaching cells were treated with trypsin for 2 minutes, cells were then collected, washed with PBS (phosphate buffer saline), spin down, resuspended in 2% heat inactivated FBS with RPMI at a concentration of 1×10^6 cells/ml, and 100 μl was plated in a 96 well plate. Compounds were dissolved in dimethyl sulfoxide (DMSO) and added to the culture medium to achieve desired concentration (e.g. 100, 30, 10, 3, 1, 0.3 or 0.1 μM). Cells were incubated with compounds for 4 hours. Cell free supernatant was collected and the production of IL-1β was evaluated by ELISA. A vehicle only control was run concurrently with each experiment. Final DMSO concentration was 1%.

[3] = molecular target: T2, human TLR7 (Homo sapiens, UniProt Q9NYK1); experiment: In vitro human TLR7 binding reporter assay (HEK-Blue, NF-kB/AP1-inducible SEAP); assay type: cell-based; settings: HEK-Blue human TLR7 SEAP reporter cells; activity range classes; read-out: TLR7 Agonist EC50
T2 construct: host or cells: human HEK-Blue cells (HEK293-derived) co-expressing TLR7 and an NF-kB/AP1-inducible SEAP reporter
T2 sequence (Q9NYK1 27-1049): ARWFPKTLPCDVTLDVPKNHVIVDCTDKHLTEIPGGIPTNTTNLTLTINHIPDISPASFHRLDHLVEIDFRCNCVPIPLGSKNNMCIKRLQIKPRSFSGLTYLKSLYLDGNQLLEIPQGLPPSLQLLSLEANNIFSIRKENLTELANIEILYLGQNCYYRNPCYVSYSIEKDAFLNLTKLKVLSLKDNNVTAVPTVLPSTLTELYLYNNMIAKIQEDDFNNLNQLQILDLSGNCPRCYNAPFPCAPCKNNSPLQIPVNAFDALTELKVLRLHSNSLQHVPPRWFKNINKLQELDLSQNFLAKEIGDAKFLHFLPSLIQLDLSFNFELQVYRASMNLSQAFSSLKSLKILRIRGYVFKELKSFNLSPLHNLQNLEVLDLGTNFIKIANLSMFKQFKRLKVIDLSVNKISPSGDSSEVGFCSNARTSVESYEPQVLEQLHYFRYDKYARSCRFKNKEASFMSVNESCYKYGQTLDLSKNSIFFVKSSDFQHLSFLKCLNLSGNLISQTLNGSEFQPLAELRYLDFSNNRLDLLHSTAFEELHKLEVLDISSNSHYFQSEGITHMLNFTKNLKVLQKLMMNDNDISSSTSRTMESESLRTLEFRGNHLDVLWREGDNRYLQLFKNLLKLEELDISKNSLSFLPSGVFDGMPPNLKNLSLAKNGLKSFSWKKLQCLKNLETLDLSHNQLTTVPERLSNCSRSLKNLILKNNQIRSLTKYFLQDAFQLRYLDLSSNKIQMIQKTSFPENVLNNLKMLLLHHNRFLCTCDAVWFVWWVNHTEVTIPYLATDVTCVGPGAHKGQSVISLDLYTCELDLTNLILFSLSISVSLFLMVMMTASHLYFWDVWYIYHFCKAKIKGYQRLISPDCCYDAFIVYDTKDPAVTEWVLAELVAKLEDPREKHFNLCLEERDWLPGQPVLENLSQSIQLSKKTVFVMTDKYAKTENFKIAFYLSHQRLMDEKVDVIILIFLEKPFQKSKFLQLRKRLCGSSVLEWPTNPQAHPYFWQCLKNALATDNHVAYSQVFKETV
Description: as §1, §2

Row | SMILES | EC50 [1] | IC50 [2] | EC50 [3]
1 | CCN(CCCc1cc2ccc(-c3cc[nH]n3)cc2nc1N)C(C)=O [Compound 112, N-[3-[2-amino-7-(1H-pyrazol-3-yl)quinolin-3-yl]propyl]-N-ethylacetamide] | > 100 µM | 2560 nM | > 100 µM
2 | COCc1cc2ccc(-c3ccn[nH]3)cc2nc1N [Compound 113, 3-(methoxymethyl)-7-(1H-pyrazol-5-yl)quinolin-2-amine] | > 100 µM | 11900 nM | > 100 µM
3 | Nc1nc2cc(-c3ccn[nH]3)ccc2cc1CCCN1CCCCC1 [Compound 114] | > 100 µM | 4250 nM | > 100 µM
4 | Nc1nc2cc(-c3ccn[nH]3)ccc2cc1CN1CCOCC1 [Compound 115] | > 100 µM | 3040 nM | > 100 µM
5 | Nc1nc2cc(-c3ccn[nH]3)ccc2cc1C1CCOCC1 [Compound 116] | > 100 µM | 4070 nM | > 100 µM
6 | CN(C)C1CCN(Cc2cc3ccc(-c4ccn[nH]4)cc3nc2N)CC1 [Compound 118] | > 100 µM | 1730 nM | > 100 µM
7 | Nc1nc2cc(-c3ccn[nH]3)ccc2cc1CN1CCCC1=O [Compound 119] | 20 to 100 µM | 3070 nM | > 100 µM
8 | Nc1nc2cc(-c3ccn[nH]3)ccc2cc1C(=O)Nc1cccnc1 [Compound 124] | > 100 µM | 14500 nM | > 100 µM
9 | Nc1nc2cc(-c3ccn[nH]3)ccc2cc1-c1ccc2[nH]ncc2c1 [Compound 127] | > 100 µM | 1150 nM | > 100 µM
10 | Nc1cc(NCc2cc[nH]n2)c2ccc(-c3ccn[nH]3)cc2n1 [Compound 128, N4-((1H-pyrazol-3-yl)methyl)-7-(1H-pyrazol-5-yl)quinoline-2,4-diamine] | > 100 µM | 100 nM | > 100 µM
11 | COc1cccc(C(C)Nc2cc(N)nc3cc(-c4ccn[nH]4)ccc23)n1 (stereo not drawn) [Compound 129, N4-(1-(6-methoxypyridin-2-yl)ethyl)-7-(1H-pyrazol-5-yl)quinoline-2,4-diamine] | > 100 µM | 2290 nM | > 100 µM
12 | Nc1cc(N2CCOCC2)c2ccc(-c3ccn[nH]3)cc2n1 [Compound 131] | > 100 µM | 850 nM | > 100 µM
13 | C[C@@H](O)CNc1cc(N)nc2cc(-c3ccn[nH]3)ccc12 [Compound 133] | > 100 µM | 300 nM | > 100 µM
14 | C[C@H](O)CNc1cc(N)nc2cc(-c3ccn[nH]3)ccc12 [Compound 134] | > 100 µM | 290 nM | > 100 µM
15 | Nc1cc(NCc2ccccn2)c2ccc(-c3ccn[nH]3)cc2n1 [Compound 135] | > 100 µM | 120 nM | > 100 µM
16 | CN(CCO)c1cc(N)nc2cc(-c3ccn[nH]3)ccc12 [Compound 136] | > 100 µM | 3020 nM | > 100 µM
17 | Nc1cc(NCC2CCOCC2)c2ccc(-c3ccn[nH]3)cc2n1 [Compound 137] | > 100 µM | 550 nM | > 100 µM
18 | CN(C)C(=O)CCNc1cc(N)nc2cc(-c3ccn[nH]3)ccc12 [Compound 138] | > 100 µM | 5950 nM | 1 to 20 µM
19 | CNC(=O)CCNc1cc(N)nc2cc(-c3ccn[nH]3)ccc12 [Compound 139] | > 100 µM | 2010 nM | > 100 µM
20 | CS(=O)(=O)CCNc1cc(N)nc2cc(-c3ccn[nH]3)ccc12 [Compound 140] | > 100 µM | 1410 nM | > 100 µM
21 | Nc1cc(N2CC[C@H](O)C2)c2ccc(-c3ccn[nH]3)cc2n1 [Compound 142] | > 100 µM | 1430 nM | > 100 µM
22 | Nc1cc(N2CC[C@@H](O)C2)c2ccc(-c3ccn[nH]3)cc2n1 [Compound 143] | > 100 µM | 5810 nM | > 100 µM
23 | Nc1cc(NCCCCO)c2ccc(-c3ccn[nH]3)cc2n1 [Compound 144] | > 100 µM | 480 nM | > 100 µM

— patent publication US12171756B2, “NLRP3 modulators” (Innate Tumor Immunity, Inc., priority 2017, dated 2024)
